Results published in patent US12129246B1, “Hydroquinazoline derivatives for the treatment of a disease or disorder” (Novartis AG, priority 2023, dated 2024).
Read-outs that look alike come from different tables or passages of the source.

Tests used:
monkey NPR1 = monkey NPR1 (Macaca fascicularis, UniProt A0A7N9DBT9); test: Cellular cGMP production assay, monkey NPR1 expressing CHO-K1 cells (CisBio HTRF); type: cell-based; conditions: for Monkey NPR1 Amax (% of ANP): maximum cGMP production as percentage of the maximum cGMP produced with ANP
How it was run: (§1)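 Step 1: add buffer (PBS, 0.1% BSA, 1 mM IBMX) and compounds, 3-fold series from 30 μM top. Step 2: incubate 30 min, 37 °C. Step 3: lyse; HTRF reagents 1 h at RT.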

human NPR1 = molecular target: T1, human NPR1 (Homo sapiens, UniProt P16066); test: Cellular cGMP production assay, human NPR1 expressing CHO-K1 cells (CisBio HTRF); type: cell-based; conditions: for AC50: cGMP production, 30 min at 37° C., 12-point dose-response from 30 μM; for Human NPR1 Amax (% of ANP): maximum cGMP production as percentage of the maximum cGMP produced with ANP
T1 construct: host or cells: CHO-K1
T1 sequence (P16066 33-1061): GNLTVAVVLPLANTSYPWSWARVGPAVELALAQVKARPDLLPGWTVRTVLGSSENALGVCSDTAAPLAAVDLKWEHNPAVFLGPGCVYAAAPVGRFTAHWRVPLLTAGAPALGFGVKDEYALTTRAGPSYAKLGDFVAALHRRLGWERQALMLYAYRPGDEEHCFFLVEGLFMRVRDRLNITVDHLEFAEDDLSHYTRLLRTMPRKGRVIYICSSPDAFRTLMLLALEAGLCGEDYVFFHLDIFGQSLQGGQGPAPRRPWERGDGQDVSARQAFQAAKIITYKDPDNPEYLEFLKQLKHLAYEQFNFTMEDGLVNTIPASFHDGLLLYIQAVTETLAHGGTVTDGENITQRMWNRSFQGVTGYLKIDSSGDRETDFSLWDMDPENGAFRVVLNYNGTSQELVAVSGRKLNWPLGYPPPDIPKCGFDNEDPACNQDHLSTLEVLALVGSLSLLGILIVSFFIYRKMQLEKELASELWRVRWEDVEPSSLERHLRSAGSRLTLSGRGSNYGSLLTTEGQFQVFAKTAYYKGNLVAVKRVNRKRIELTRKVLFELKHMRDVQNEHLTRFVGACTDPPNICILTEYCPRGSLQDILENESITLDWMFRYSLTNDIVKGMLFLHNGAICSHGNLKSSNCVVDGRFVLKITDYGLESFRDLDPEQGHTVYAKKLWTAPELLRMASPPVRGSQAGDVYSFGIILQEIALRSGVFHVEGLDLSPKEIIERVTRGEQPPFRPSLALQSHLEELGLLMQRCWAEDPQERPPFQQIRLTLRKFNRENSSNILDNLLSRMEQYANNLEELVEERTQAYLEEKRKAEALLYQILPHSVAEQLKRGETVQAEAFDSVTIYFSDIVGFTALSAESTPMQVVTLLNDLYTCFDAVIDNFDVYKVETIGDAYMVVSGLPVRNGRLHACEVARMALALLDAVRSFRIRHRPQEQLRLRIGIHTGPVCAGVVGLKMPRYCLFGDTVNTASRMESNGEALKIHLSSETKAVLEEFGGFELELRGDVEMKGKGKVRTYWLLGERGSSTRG
How it was run: as §1

[1] = cGMP production, monkey NPR1 CHO-K1 cells, 30 min at 37° C., 12-point dose-response from 30 μM, read-out: Monkey NPR1 AC50

Sequence of monkey NPR1 (A0A7N9DBT9 entry or part of it): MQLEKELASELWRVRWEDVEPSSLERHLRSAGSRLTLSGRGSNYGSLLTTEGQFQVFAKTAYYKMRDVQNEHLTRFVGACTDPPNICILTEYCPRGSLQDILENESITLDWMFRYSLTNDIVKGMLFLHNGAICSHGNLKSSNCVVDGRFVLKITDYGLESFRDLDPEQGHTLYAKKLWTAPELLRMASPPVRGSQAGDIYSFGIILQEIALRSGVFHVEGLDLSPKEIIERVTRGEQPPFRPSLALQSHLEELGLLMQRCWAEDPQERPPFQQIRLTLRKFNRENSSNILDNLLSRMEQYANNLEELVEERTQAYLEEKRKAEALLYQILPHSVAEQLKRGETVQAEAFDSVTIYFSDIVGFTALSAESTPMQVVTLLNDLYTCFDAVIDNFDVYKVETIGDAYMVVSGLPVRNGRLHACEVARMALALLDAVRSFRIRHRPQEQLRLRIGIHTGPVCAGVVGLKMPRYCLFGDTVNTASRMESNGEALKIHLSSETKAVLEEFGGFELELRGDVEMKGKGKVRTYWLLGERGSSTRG

CC[C@@H](N(C)c1nc2c(c(N[C@@H](CN3C4CCCC3CCC4)c3ccnn3C)n1)C[C@H](c1ccccc1)CC2)C12CC(C(=O)O)(C1)C2 [Compound 172, 3-((R)-1-(((R)-4-(((S)-2-((1R,5R)-9-azabicyclo[3.3.1]nonan-9-yl)-1-(1-methyl-1H-pyrazol-5-yl)ethyl)amino)-6-phenyl-5,6,7,8-tetrahydroquinazolin-2-yl)(methyl)amino)propyl)bicyclo[1.1.1]pentane-1-carboxylic acid]
AC50 (monkey NPR1): 2.58 µM | Monkey NPR1 Amax (% of ANP) (monkey NPR1; monkey NPR1 CHO-K1 cells): 111.107 % of ANP | AC50 (human NPR1): 3.68 µM | Human NPR1 Amax (% of ANP) (human NPR1): 94.632 % of ANP

C[C@H]1CCCN(C[C@H](Nc2nc(N(C)[C@H](C3CC3)[C@H]3CC[C@H](C(=O)O)CC3)nc3c2C[C@H](c2ccccc2)CC3)c2cnn(C)c2)C1 [Compound 120, (1R,4r)-4-((R)-cyclopropyl(methyl((R)-4-(((R)-1-(1-methyl-1H-pyrazol-4-yl)-2-((S)-3-methylpiperidin-1-yl)ethyl)amino)-6-phenyl-5,6,7,8-tetrahydroquinazolin-2-yl)amino)methyl)cyclohexane-1-carboxylic acid]
AC50 (monkey NPR1; [1]): 0.427 µM | Monkey NPR1 Amax (% of ANP) (monkey NPR1; monkey NPR1 CHO-K1 cells): 102.755 % of ANP | AC50 (human NPR1): 0.553 µM | Human NPR1 Amax (% of ANP) (human NPR1): 96.905 % of ANP

CC[C@@H](Nc1nc2c(c(N[C@@H](CN3CCCCC3)c3cnn(CC)c3)n1)C[C@@H](c1cccc(F)c1)CC2)[C@H]1CC[C@H](C(=O)O)CC1 [Compound 50, (1R,4r)-4-((R)-1-(((S)-4-(((R)-1-(1-ethyl-1H-pyrazol-4-yl)-2-(piperidin-1-yl)ethyl)amino)-6-(3-fluorophenyl)-5,6,7,8-tetrahydroquinazolin-2-yl)amino)propyl)cyclohexane-1-carboxylic acid]
AC50 (monkey NPR1; [1]): 0.135 µM | Monkey NPR1 Amax (% of ANP) (monkey NPR1; monkey NPR1 CHO-K1 cells): 107.881 % of ANP | AC50 (human NPR1): 0.187 µM | Human NPR1 Amax (% of ANP) (human NPR1): 93.357 % of ANP

CC[C@@H](N(C)c1nc2c(c(N[C@@H](CN3C4CCCC3CCC4)c3cnn(C)c3)n1)C[C@H](c1cccc(F)c1)CC2)C12CC(C(=O)O)(C1)C2 [Compound 6, 3-((R)-1-(((R)-4-(((R)-2-((1S,5S)-9-azabicyclo[3.3.1]nonan-9-yl)-1-(1-methyl-1H-pyrazol-4-yl)ethyl)amino)-6-(3-fluorophenyl)-5,6,7,8-tetrahydroquinazolin-2-yl)(methyl)amino)propyl)bicyclo[1.1.1]pentane-1-carboxylic acid]
AC50 (monkey NPR1): 0.058 µM | Monkey NPR1 Amax (% of ANP) (monkey NPR1; monkey NPR1 CHO-K1 cells): 98.535 % of ANP | AC50 (human NPR1): 0.077 µM | Human NPR1 Amax (% of ANP) (human NPR1): 98.462 % of ANP

CC[C@H]([C@H]1CC[C@H](C(=O)O)CC1)N(C)c1nc2c(c(N[C@@H](CN3CCCCC3)c3ccc(=O)n(CC)c3)n1)C[C@H](c1ccccc1)CC2 [Compound 148, (1R,4r)-4-((R)-1-(((R)-4-(((R)-1-(1-ethyl-6-oxo-1,6-dihydropyridin-3-yl)-2-(piperidin-1-yl)ethyl)amino)-6-phenyl-5,6,7,8-tetrahydroquinazolin-2-yl)(methyl)amino)propyl)cyclohexane-1-carboxylic acid]
AC50 (monkey NPR1; [1]): 0.834 µM | Monkey NPR1 Amax (% of ANP) (monkey NPR1; monkey NPR1 CHO-K1 cells): 102.851 % of ANP | AC50 (human NPR1): 1.08 µM | Human NPR1 Amax (% of ANP) (human NPR1): 93.518 % of ANP

CC[C@H]([C@H]1CC[C@H](C(=O)O)CC1)N(C)c1nc2c(c(N[C@@H](CN3C4CCCC3CC4)c3cnc(C)s3)n1)C[C@H](c1cccc(F)c1)CC2 [Compound 81, (1R,4r)-4-((1R)-1-(((6R)-4-(((1S)-2-(8-azabicyclo[3.2.1]octan-8-yl)-1-(2-methylthiazol-5-yl)ethyl)amino)-6-(3-fluorophenyl)-5,6,7,8-tetrahydroquinazolin-2-yl)(methyl)amino)propyl)cyclohexane-1-carboxylic acid]
AC50 (monkey NPR1): 0.175 µM | Monkey NPR1 Amax (% of ANP) (monkey NPR1; monkey NPR1 CHO-K1 cells): 100.863 % of ANP | AC50 (human NPR1): 0.271 µM | Human NPR1 Amax (% of ANP) (human NPR1): 101.636 % of ANP

CC[C@H]([C@H]1CC[C@H](C(=O)O)CC1)N(C)c1nc2c(c(N[C@@H](CN3CCC[C@H](C)C3)c3cnn(C)c3)n1)C[C@H](c1ccccc1)CC2 [Compound 40, (1R,4r)-4-((R)-1-(methyl((R)-4-(((R)-1-(1-methyl-1H-pyrazol-4-yl)-2-((S)-3-methylpiperidin-1-yl)ethyl)amino)-6-phenyl-5,6,7,8-tetrahydroquinazolin-2-yl)amino)propyl)cyclohexane-1-carboxylic acid]
AC50 (monkey NPR1; [1]): 0.127 µM | Monkey NPR1 Amax (% of ANP) (monkey NPR1; monkey NPR1 CHO-K1 cells): 105.150 % of ANP | AC50 (human NPR1): 0.166 µM | Human NPR1 Amax (% of ANP) (human NPR1): 102.476 % of ANP

CC[C@@H](N(C)c1nc2c(c(N[C@@H](CN3CCC[C@H](C)C3)c3ccnn3C)n1)C[C@H](c1cccc(F)c1)CC2)C12CC(C(=O)O)(C1)C2 [Compound 155, 3-((R)-1-(((R)-6-(3-fluorophenyl)-4-(((S)-1-(1-methyl-1H-pyrazol-5-yl)-2-((S)-3-methylpiperidin-1-yl)ethyl)amino)-5,6,7,8-tetrahydroquinazolin-2-yl)(methyl)amino)propyl)bicyclo[1.1.1]pentane-1-carboxylic acid]
AC50 (monkey NPR1; [1]): 0.648 µM | Monkey NPR1 Amax (% of ANP) (monkey NPR1; monkey NPR1 CHO-K1 cells): 95.840 % of ANP | AC50 (human NPR1): 1.29 µM | Human NPR1 Amax (% of ANP) (human NPR1): 97.313 % of ANP

CC[C@@H](Nc1nc2c(c(N[C@@H](CN3CCC(OC)CC3)c3cnn(C)c3)n1)C[C@H](c1ccccc1)CC2)[C@H]1CC[C@H](C(=O)O)CC1 [Compound 151, (1R,4r)-4-((R)-1-(((R)-4-(((R)-2-(4-methoxypiperidin-1-yl)-1-(1-methyl-1H-pyrazol-4-yl)ethyl)amino)-6-phenyl-5,6,7,8-tetrahydroquinazolin-2-yl)amino)propyl)cyclohexane-1-carboxylic acid]
AC50 (monkey NPR1; [1]): 1.33 µM | Monkey NPR1 Amax (% of ANP) (monkey NPR1; monkey NPR1 CHO-K1 cells): 96.950 % of ANP | AC50 (human NPR1): 1.18 µM | Human NPR1 Amax (% of ANP) (human NPR1): 88.350 % of ANP

CC[C@@H](Nc1nc2c(c(N[C@@H](CN3CCCC4(CCC4)C3)c3cnn(CC)c3)n1)C[C@H](c1ccccc1)CC2)[C@H]1CC[C@H](C(=O)O)CC1 [Compound 126, (1R,4r)-4-((R)-1-(((R)-4-(((R)-1-(1-ethyl-1H-pyrazol-4-yl)-2-(6-azaspiro[3.5]nonan-6-yl)ethyl)amino)-6-phenyl-5,6,7,8-tetrahydroquinazolin-2-yl)amino)propyl)cyclohexane-1-carboxylic acid]
AC50 (monkey NPR1; [1]): 0.452 µM | Monkey NPR1 Amax (% of ANP) (monkey NPR1; monkey NPR1 CHO-K1 cells): 102.477 % of ANP | AC50 (human NPR1): 0.62 µM | Human NPR1 Amax (% of ANP) (human NPR1): 98.906 % of ANP

CC[C@H]([C@H]1CC[C@H](C(=O)O)CC1)N(C)c1nc2c(c(N[C@@H](CN3C4CCC3CC4)c3cnn(C)c3)n1)C[C@H](c1cccc(F)c1)CC2 [Compound 57, (1R,4r)-4-((R)-1-(((R)-4-(((R)-2-(7-azabicyclo[2.2.1]heptan-7-yl)-1-(1-methyl-1H-pyrazol-4-yl)ethyl)amino)-6-(3-fluorophenyl)-5,6,7,8-tetrahydroquinazolin-2-yl)(methyl)amino)propyl)cyclohexane-1-carboxylic acid]
AC50 (monkey NPR1): 0.082 µM | Monkey NPR1 Amax (% of ANP) (monkey NPR1; monkey NPR1 CHO-K1 cells): 103.000 % of ANP | AC50 (human NPR1): 0.199 µM | Human NPR1 Amax (% of ANP) (human NPR1): 101.340 % of ANP

CC[C@@H](Nc1nc2c(c(N[C@@H](CN3CCC[C@H](C)C3)c3scnc3C)n1)C[C@H](c1ccccc1)CC2)[C@H]1CC[C@H](C(=O)O)CC1 [Compound 73, (1R,4r)-4-((R)-1-(((R)-4-(((S)-2-((S)-3-methylpiperidin-1-yl)-1-(4-methylthiazol-5-yl)ethyl)amino)-6-phenyl-5,6,7,8-tetrahydroquinazolin-2-yl)amino)propyl)cyclohexane-1-carboxylic acid]
AC50 (monkey NPR1; [1]): 0.172 µM | Monkey NPR1 Amax (% of ANP) (monkey NPR1; monkey NPR1 CHO-K1 cells): 99.527 % of ANP | AC50 (human NPR1): 0.245 µM | Human NPR1 Amax (% of ANP) (human NPR1): 94.290 % of ANP

CC[C@H]([C@H]1CC[C@H](C(=O)O)CC1)N(C)c1nc2c(c(N[C@@H](CN3C4CCC3CC4)c3cnn(C)c3)n1)C[C@H](c1ccc(F)cc1)CC2 [Compound 63, (1R,4r)-4-((R)-1-(((R)-4-(((R)-2-(7-azabicyclo[2.2.1]heptan-7-yl)-1-(1-methyl-1H-pyrazol-4-yl)ethyl)amino)-6-(4-fluorophenyl)-5,6,7,8-tetrahydroquinazolin-2-yl)(methyl)amino)propyl)cyclohexane-1-carboxylic acid]
AC50 (monkey NPR1): 0.196 µM | Monkey NPR1 Amax (% of ANP) (monkey NPR1; monkey NPR1 CHO-K1 cells): 99.684 % of ANP | AC50 (human NPR1): 0.21 µM | Human NPR1 Amax (% of ANP) (human NPR1): 100.629 % of ANP
